Data reported in ChEMBL document CHEMBL4190268, “Design, synthesis and biological studies of a library of NK1-Receptor Ligands Based on a 5-arylthiosubstituted 2-amino-4,6-diaryl-3-cyano-4H-pyran core: Switch from antagonist to agonist effect by chemical modification” (Eur J Med Chem, 2017).
Activity calls are given as the source filed them. The rule behind the calls is not given here.

Assays:
Substance-P receptor [1] = molecular target: T1, Substance-P receptor (Homo sapiens, UniProt P25103); conditions: CHO, 10^-7 M
Description: Antagonist activity at His6-tagged NK1 receptor (unknown origin) expressed in CHO cells assessed as inhibition of substance-P-induced IP1 accumulation at 10^-7 M preincubated for 10 mins followed by substance-P addition measured after 30 mins by HTRF-FRET assay relative to control

A549 [2] = test: cells; conditions: Homo sapiens, A549, 48 h
MRC5 [3] = test: cells; conditions: Homo sapiens, MRC5, 48 h
Description: Cytotoxicity against human MRC5 cells after 48 hrs by MTT assay

Substance-P receptor [4] = molecular target: T1, Substance-P receptor; test: Antagonist activity at His6-tagged NK1 receptor (unknown origin) expressed in CHO cells assessed as inhibition of substance-P-induced IP1 accumulation at 5 x 10^-5M preincubated for 10 mins followed by substance-P addition measured after 30 mins by HTRF-FRET assay relative to control; assay type: functional, cell-based
Substance-P receptor [5] = molecular target: T1, Substance-P receptor; test: Antagonist activity at His6-tagged NK1 receptor (unknown origin) expressed in CHO cells assessed as inhibition of substance-P-induced IP1 accumulation at 10^-5 M preincubated for 10 mins followed by substance-P addition measured after 30 mins by HTRF-FRET assay relative to control; assay type: functional, cell-based
A549 [6] = test: Cytotoxicity against human A549 cells assessed as cell viability at 320 uM after 48 hrs by MTT assay relative to control; assay type: functional; conditions: A549, 48 h, read-out: Activity
[7] = Cytotoxicity against human MRC5 cells assessed as cell viability at 320 uM after 48 hrs by MTT assay relative to control; assay type: cell-based; conditions: read-out: Activity
A549 [8] = test: Growth inhibition of human A549 cells at 10^3 uM after 48 hrs by MTT assay relative to control; assay type: functional
[9] = Cytotoxicity against human MRC5 cells assessed as cell growth inhibition at 10^3 uM after 48 hrs by MTT assay relative to control; assay type: cell-based; conditions: read-out: GI
A549 [10] = test: Growth inhibition of human A549 cells at 1 mM by inverted microscopic method; assay type: functional, cell-based
Substance-P receptor [11] = molecular target: T1, Substance-P receptor; test: Partial agonist activity at His6-tagged NK1 receptor (unknown origin) expressed in CHO cells assessed as IP1 accumulation at 5 x 10^-5M measured after 30 mins by HTRF-FRET assay relative to control; assay type: functional, cell-based
Substance-P receptor [12] = molecular target: T1, Substance-P receptor; test: Partial agonist activity at His6-tagged NK1 receptor (unknown origin) expressed in CHO cells assessed as IP1 accumulation at 10^-5 M measured after 30 mins by HTRF-FRET assay relative to control; assay type: functional, cell-based
Substance-P receptor [13] = molecular target: T1, Substance-P receptor; test: Partial agonist activity at His6-tagged NK1 receptor (unknown origin) expressed in CHO cells assessed as IP1 accumulation measured after 30 mins by HTRF-FRET assay; assay type: functional, cell-based
Substance-P receptor [14] = molecular target: T1, Substance-P receptor; test: Antagonist activity at His6-tagged NK1 receptor (unknown origin) expressed in CHO cells assessed as inhibition of substance-P-induced IP1 accumulation preincubated for 10 mins followed by substance-P addition measured after 30 mins by HTRF-FRET assay
A549 [15] = test: Cytotoxicity against human A549 cells assessed as cell death at greater than antiproliferative IC50 after 48 hrs by MTT assay relative to control; assay type: functional
MRC5 [16] = test: Cytotoxicity against human MRC5 cells assessed as cell death at greater than cytotoxic IC50 after 48 hrs by MTT assay relative to control; assay type: cell-based; conditions: mrc5, 48 h

T1 sequence (P25103 whole entry): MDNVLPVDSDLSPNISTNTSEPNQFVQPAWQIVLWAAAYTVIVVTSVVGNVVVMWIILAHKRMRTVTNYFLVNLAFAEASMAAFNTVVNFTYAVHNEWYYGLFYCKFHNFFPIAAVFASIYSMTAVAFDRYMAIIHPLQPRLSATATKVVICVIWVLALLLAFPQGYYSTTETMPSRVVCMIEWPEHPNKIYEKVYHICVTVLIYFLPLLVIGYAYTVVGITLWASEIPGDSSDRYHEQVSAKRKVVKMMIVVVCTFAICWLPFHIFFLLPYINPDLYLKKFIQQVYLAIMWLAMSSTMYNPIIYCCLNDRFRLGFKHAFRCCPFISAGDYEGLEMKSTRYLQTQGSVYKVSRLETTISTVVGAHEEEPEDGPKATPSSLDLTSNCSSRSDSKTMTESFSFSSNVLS

| inhibition (Substance-P receptor [4]) [%] | inhibition (Substance-P receptor [5]) [%] | Compound | also measured |
| --- | --- | --- | --- |
|  |  | COc1ccccc1CN[C@H]1C2CCN(CC2)[C@H]1C(c1ccccc1)c1ccccc1 [CP-96345] | inhibition (Substance-P receptor [1]): 85.3%; IC50 (A549 [2]): 46.8 µM; IC50 (MRC5 [3]): 57.9 µM |
| 28.6 | 30 | Cc1ccc([S@+]([O-])C2=C(c3ccccn3)OC(N)=C(C#N)[C@H]2c2cc(C(F)(F)F)cc(C(F)(F)F)c2)cc1 |  |
| 28.9 | 30 | Cc1ccc([S+]([O-])C2=C(c3ccccn3)OC(N)=C(C#N)C2c2ccc([N+](=O)[O-])cc2)cc1 (racemic) |  |
| 49.7 | 43.3 | Cc1ccc([S@+]([O-])C2=C(c3ccccn3)OC(N)=C(C#N)[C@H]2c2ccc([N+](=O)[O-])cc2)cc1 |  |
| 43.9 | 34.5 | COc1ccc([C@@H]2C(C#N)=C(N)OC(c3ccccn3)=C2[S@@+]([O-])c2ccc(C)cc2)cc1 | viability at 320 µM (A549 [6]): 7%; viability at 48 h, 320 µM [7]: 70%; IC50 (A549 [2]): 156 µM; IC50 (MRC5 [3]): 430 µM |
| 2.51 |  | Cc1ccc([S+]([O-])C2=C(c3ccccn3)OC(N)=C(C#N)C2c2ccc(F)cc2)cc1 (racemic) |  |
| 19.8 | 32 | N#CC1=C(N)OC(c2ccccn2)=C([S+]([O-])c2ccccc2)C1c1ccccc1 (racemic) |  |
| 28.1 | -4.43 | COc1ccc([C@H]2C(C#N)=C(N)OC(c3ccccn3)=C2[S@+]([O-])c2ccc(C)cc2)cc1 | growth inhibition (GI) (A549 [8]): 100%; inhibition at 48 h, 1000 uM [9]: 30%; growth inhibition (GI) (A549 [10]): Active; IC50 (A549 [2]): 508 µM |
| 56.6 |  | N#CC1=C(N)OC(c2ccccn2)=C([S+]([O-])c2ccc([N+](=O)[O-])cc2)C1c1ccccc1 (racemic) |  |
| 38.1 |  | Cc1ccc(C2C(C#N)=C(N)OC(c3ccccn3)=C2[S+]([O-])c2ccc([N+](=O)[O-])cc2)cc1 (racemic) |  |
| 23.8 |  | Cc1ccc(SC2=C(c3ccccn3)OC(NC(=O)C(F)(F)F)=C(C#N)[C@H]2c2ccc([N+](=O)[O-])cc2)cc1 | Activity (Substance-P receptor [11]): 62.3%; Activity (Substance-P receptor [12]): 25.9%; EC50 (Substance-P receptor [13]): 350 µM |
| 32.2 | 32.8 | Cc1ccc(C2C(C#N)=C(N)OC(c3ccccn3)=C2[S+]([O-])c2ccc(C)cc2)cc1 (racemic) |  |
| 47.2 | 33.3 | CC(=O)NC1=C(C#N)[C@@H](c2ccc(C)cc2)C([S@@+]([O-])c2ccc(C)cc2)=C(c2ccccn2)O1 | Activity (Substance-P receptor [11]): 30.4%; Activity (Substance-P receptor [12]): 19.8%; IC50 (A549 [2]): 108 µM; IC50 (MRC5 [3]): 136 µM |
| 20.6 | 18.5 | Cc1ccc([S@@+]([O-])C2=C(c3ccccn3)OC(N)=C(C#N)[C@@H]2c2ccc([N+](=O)[O-])cc2)cc1 |  |
| 21 | 30 | Cc1ccc([S@+]([O-])C2=C(c3ccccn3)OC(N)=C(C#N)[C@H]2c2ccc(Cl)cc2)cc1 |  |
| 11.2 |  | Cc1ccc([S@@+]([O-])C2=C(c3ccccn3)OC(N)=C(C#N)[C@@H]2c2ccc(F)cc2)cc1 |  |
| 50.8 | 37 | Cc1ccc([C@@H]2C(C#N)=C(N)OC(c3ccccn3)=C2[S@@+]([O-])c2ccc(C)cc2)cc1 |  |

| inhibition (Substance-P receptor [4]) [%] | inhibition (Substance-P receptor [5]) [%] | Compound | also measured |
| --- | --- | --- | --- |
| 24.4 | 35 | Cc1ccc([S+]([O-])C2=C(c3ccccn3)OC(N)=C(C#N)C2c2ccccc2)cc1 (racemic) |  |
| 37.1 | 21.4 | CC(=O)NC1=C(C#N)[C@H](c2ccc(C)cc2)C([S@+]([O-])c2ccc(C)cc2)=C(c2ccccn2)O1 | Activity (Substance-P receptor [11]): 30.4% |
| 21 |  | Cc1ccc([S@+]([O-])C2=C(c3ccccn3)OC(N)=C(C#N)[C@H]2c2ccc(F)cc2)cc1 |  |
| 56.1 | 35.6 | N#CC1=C(N)OC(c2ccccn2)=C([S+]([O-])c2ccc([N+](=O)[O-])cc2)C1c1ccc([N+](=O)[O-])cc1 (racemic) | IC50 (A549 [2]): 536 µM; IC50 (MRC5 [3]): 825 µM |
| 20.9 | 28.8 | Cc1ccc([S@@+]([O-])C2=C(c3ccccn3)OC(N)=C(C#N)[C@@H]2c2ccccc2)cc1 | IC50 (A549 [2]): 196 µM; IC50 (MRC5 [3]): 425 µM |
| 12.5 |  | Cc1ccc([S+]([O-])C2=C(c3ccco3)OC(N)=C(C#N)C2c2ccc(Cl)cc2)cc1 (racemic) |  |
| 45.9 | 33.5 | N#CC1=C(N)OC(c2ccccn2)=C([S+]([O-])c2ccccc2)C1c1ccc([N+](=O)[O-])cc1 (racemic) |  |
| 32.2 |  | N#CC1=C(N)OC(c2ccccn2)=C([S+]([O-])c2ccc([N+](=O)[O-])cc2)C1c1ccc(Cl)cc1 (racemic) |  |
| 23.7 | 37.5 | Cc1ccc([C@H]2C(C#N)=C(N)OC(c3ccccn3)=C2[S@+]([O-])c2ccc(C)cc2)cc1 |  |
| 5.8 |  | Cc1ccc([S@@+]([O-])C2=C(c3ccccn3)OC(N)=C(C#N)[C@@H]2c2ccc(Cl)cc2)cc1 |  |
| 11.1 |  | COc1ccc(C2C(C#N)=C(N)OC(c3ccccn3)=C2[S+]([O-])c2ccccc2)cc1 (racemic) |  |
| 11.5 |  | Cc1ccc(C2C(C#N)=C(N)OC(c3cc(C(F)(F)F)cc(C(F)(F)F)c3)=C2[S+]([O-])c2ccc(C)cc2)cc1 (racemic) |  |
| 15.8 | 13.9 | Cc1ccc([S+]([O-])C2=C(c3ccccn3)OC(N)=C(C#N)C2c2ccc(Cl)cc2)cc1 (racemic) |  |
|  |  | CC(O)C(=O)O (configuration not stated) [LACTIC ACID] | IC50 (A549 [2]): 26.6 µM; IC50 (MRC5 [3]): 23.9 µM |
| 36.8 | 6.93 | Cc1ccc(SC2=C(c3ccccn3)OC(NC(=O)C(F)(F)F)=C(C#N)[C@H]2c2ccccc2)cc1 | Activity (Substance-P receptor [11]): 34.2%; Activity (Substance-P receptor [12]): 13.5% |
| 68.5 | 45.5 | N#CC1=C(N)OC(c2ccccn2)=C(S(=O)(=O)c2ccccc2)C1c1ccc([N+](=O)[O-])cc1 (racemic) | IC50 (Substance-P receptor [14]): 200 µM; IC50 (A549 [2]): 148 µM; IC50 (MRC5 [3]): 140 µM |

| Compound | inhibition (Substance-P receptor [4]) [%] | inhibition (Substance-P receptor [5]) [%] | also measured |
| --- | --- | --- | --- |
| Cc1ccc([S@+]([O-])C2=C(c3ccccn3)OC(N)=C(C#N)[C@H]2c2ccccc2)cc1 | 51.1 | 42 | Activity (A549 [15]): <=80%; Activity (MRC5 [16]): < 30%; IC50 (A549 [2]): 172 µM; IC50 (MRC5 [3]): 132 µM |
